# Reference: patent publication US10517850B2, “Combination of TAFIa inhibitor with plasminogen activator” (DAIICHI SANKYO COMPANY, LIMITED, priority 2015, dated 2019)
# Legend:
# [1] = system: fibrinolytic activity (D-dimer level in plasma); assay: Test on combined use with u-PA: tissue factor-infused rats, plasma D-dimer level as index for fibrinolytic activity; assay type: in vivo, male Wistar rats
# Description: (1) u-PA (urokinase injection “Fuji” (registered trademark) 60,000, Wakamoto Co., Ltd.) was adjusted to 90 kU/mL with injectable water.
# (2) Compound A was dissolved in saline to prepare a 1.0 mg/mL solution. The solution was further diluted to 0.0050 mg/mL using saline. The dose of compound A was indicated in terms of a free form (conversion factor: 0.6301).
# (3) Appropriate amounts of saline, the 90 kU/mL u-PA solution, and the 0.0050 mg/mL compound A solution were mixed to respectively prepare administration solutions for a u-PA (30 kU/kg) group, a compound A (2.5 μg/kg) group, and a combination group of u-PA (30 kU/kg) and compound A (2.5 μg/kg).
# (4) 5 mL of saline was added to 10 mL (standard) of a tissue factor (Dade (registered trademark) Innovin (registered trademark), Sysmex Corp.) to prepare a tissue factor solution.
# (1) Eleven-week-old male Wistar rats (Japan SLC, Inc.) were fasted from a day before the experiment. On the basis of their body weights measured in the morning on the day of the experiment, 8 rats were assigned to each of 4 groups: a control (saline) group, a u-PA (30 kU/kg) group, a compound A (2.5 μg/kg) group, and a combination group of u-PA (30 kU/kg) and compound A (2.5 μg/kg). […]
# (2) For each group, the basic statistics (mean and standard error) of the D-dimer levels were calculated and used as results relating to fibrinolytic activity (Table 2). […]
# [2] = system: fibrinolytic activity (D-dimer level in plasma); assay: Test on combined use with t-PA: tissue factor-infused rats, plasma D-dimer level as index for fibrinolytic activity; assay type: in vivo, male Wistar rats; conditions: for D-dimer level Mean: jugular vein, blood at 45 min, N=7, control 5.0
# Description: 1. Preparation of Administration Solution
# (1) (2S)-5-Amino-2-{[1-(trans-4-methylcyclohexyl)-1H-imidazol-4-yl]methyl}valeric acid p-toluenesulfonate anhydrate (hereinafter, referred to as “compound A”) was dissolved in saline to prepare a 1.0 mg/mL solution. The solution was further diluted to 0.0050 mg/mL using saline. The dose of compound A was indicated in terms of a free form (conversion factor: 0.6301).
# (2) t-PA (alteplase (Activacin (registered trademark) for Injection 6,000,000), Kyowa Hakko Kirin Co., Ltd.) was adjusted to 600,000 I.U./mL (which was defined as 1.0 mg/mL) with injectable water included therein. The resulting solution was further diluted to 0.17, 0.083, and 0.042 mg/mL using saline.
# (3) The 0.0050 mg/mL compound A solution was mixed with an equal amount of saline or the 0.042 mg/mL t-PA solution to respectively prepare administration solutions for a compound A (2.5 μg/kg) group and a combination group. The 0.17, 0.083, and 0.042 mg/mL t-PA solutions were mixed with an equal amount of saline to respectively prepare administration solutions for t-PA (0.083, 0.042, and 0.021 mg/kg) groups.
# (4) 4 mL of saline was added to 10 mL (standard) of a tissue factor (Dade (registered trademark) Innovin (registered trademark), Sysmex Corp.) to prepare a tissue factor solution.
# (1) Ten-week-old male Wistar rats (Japan SLC, Inc.) were fasted from a day before the experiment. On the basis of their body weights measured in the morning on the day of the experiment, 7 rats were assigned to each of 6 groups: a control (saline) group, a compound A (2.5 μg/kg) group, t-PA (0.021, 0.042, and 0.083 mg/kg) groups, and a combination group of compound A (2.5 μg/kg) and t-PA (0.021 mg/kg).
# (2) These rats were anesthetized by the administration of 100 mg/kg thiopental sodium (Ravonal (registered trademark), Mitsubishi Tanabe Pharma Corp.), and the tissue factor solution was continuously administered at 7.5 mL/kg/hr for 20 minutes from the jugular veins. 25 minutes after the start of the administration of the tissue factor, the administration solution for each group was rapidly administered from the jugular veins. 45 minutes after the start of the administration of the tissue factor, blood was collected from the jugular veins into syringes supplemented with citric acid in advance, and plasma was prepared by centrifugation. The plasma was diluted 20-fold using a factor diluent (LSI Medience Corp.). D-dimer levels were measured using LPIA-Ace D-D dimer II and ACL TOP 500 CTS (Instrumentation Laboratory) and used as an index for fibrinolytic activity (FIG. 1).
# (1) Microsoft Excel 2003 and SAS System Release 8.2 were used in statistical analysis.
# (2) For each group, the basic statistics (mean and standard error) of the D-dimer levels were calculated and used as results relating to fibrinolytic activity (Table 1).
# (3) The comparison of the compound A (2.5 μg/kg) group with the control (saline) group was carried out by the Student's t test. The calculated P value was rounded off and indicated down to four decimal places, and the significance level was set to two-sided 5%.
# (4) The comparison of the t-PA (0.021, 0.042, and 0.083 mg/kg) groups with the control (saline) group was carried out by the parametric Dunnett's test. The calculated P value was rounded off and indicated down to four decimal places, and the significance level was set to two-sided 5%.
# (5) The comparison of the compound A (2.5 μg/kg) group or the t-PA (0.021 mg/kg) single administration group with the combination group was carried out by the parametric Dunnett's test. The calculated P value was rounded off and indicated down to four decimal places, and the significance level was set to two-sided 5%.
# (6) The comparison of the compound A (2.5 μg/kg) group or the t-PA (0.021 mg/kg) single administration group with the combination group was carried out by two-way ANOVA. […]
Molecule,"D-dimer level Mean ([1]; compound A 2.5 μg/kg (free form) alone, jugular vein, blood at 45 min, N=8, control 24.2) [µg/mL]","fibrinolytic activity (D-dimer level) with respect to the control group ([1]; compound A 2.5 μg/kg single administration, Student's t test, P=0.0019)","D-dimer level Mean ([2]; compound A 2.5 μg/kg (free form) alone, 25 min after start of tissue factor) [µg/mL]","fibrinolytic activity (D-dimer level) with respect to the control (saline) group ([2]; compound A 2.5 μg/kg, Student's t test, P=0.1431)",D-dimer level Mean ([2]; t-PA 0.021 mg/kg alone) [µg/mL],"fibrinolytic activity (D-dimer level) with respect to the control (saline) group ([2]; t-PA 0.021 mg/kg, parametric Dunnett's test, P=0.3080)",D-dimer level Mean ([2]; t-PA 0.042 mg/kg alone) [µg/mL],"fibrinolytic activity (D-dimer level) with respect to the control (saline) group ([2]; t-PA 0.042 mg/kg, parametric Dunnett's test, P<0.0001)",D-dimer level Mean ([2]; t-PA 0.083 mg/kg alone) [µg/mL],"fibrinolytic activity (D-dimer level) with respect to the control (saline) group ([2]; t-PA 0.083 mg/kg, parametric Dunnett's test, P<0.0001)"
"C[C@H]1CC[C@H](n2cnc(C[C@H](CCCN)C(=O)O)c2)CC1.Cc1ccc(S(=O)(=O)O)cc1 (relative stereo) [Compound A, (2S)-5-Amino-2-{[1-(trans-4-methylcyclohexyl)-1H-imidazol-4-yl]methyl}valeric acid p-toluenesulfonate anhydrate]",103.8,exhibited significantly excellent fibrinolytic activity,26.4,did not exhibit significantly excellent fibrinolytic activity,–,–,–,–,–,–
"t-PA: tissue plasminogen activator, alteplase (Activacin for Injection 6,000,000, Kyowa Hakko Kirin)",–,–,–,–,25.0,did not exhibit significantly excellent fibrinolytic activity,95.2,exhibited significantly excellent fibrinolytic activity,254.7,exhibited significantly excellent fibrinolytic activity
